Assay results from the supplement of paper PMC11208160.

Assay: recombinant UMI read abundance after kanamycin selection (control-corrected) (log10(CPM+1)); higher = more efficient recombination; extreme values may be limits of the assay; sequences stand for … in AGTGCAGAGAAAATCGGCCAGTTTTCTCTGCCTGCAGTCCGCATGCCGTGGGACCCCTTGGGTTCTAACCTGTTGCCTAGATTTATGCAGCGGACTGCCTTTCTCCCAAAGTGATAAACCGG…AGGTTGGTTTCACT; site = the 11-nt donor
Outline: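 In Escherichia coli, a pool of donor and donor-binding-loop pairs, each with a 12-nt UMI, was tested for the IS621 bridge recombinase. Plating was on IPTG (0.07 mM) plus kanamycin, or without selection, in two replicates. Recombinant UMIs were amplified by PCR across the donor–target junction and sequenced, and counts were reported as log10(CPM+1) after averaging and control-derived scaling.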
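Further: IS621 bridge recombinase in Escherichia coli cells against a fixed T5 target plasmid.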

| Sequence | recombinant UMI read abundance (log10) |
| --- | --- |
| CCTCCAACATGGACCGGTTTTCCCGGTAATCCGTATTTGTA (site CCTCCAACTTA) | 0.0158 |
| ACACATCCATGGACCGGTTTTCCCGGTAATCCGTATTTGAC (site TCACATCCTGT) | 0.538 |
| AGGTAGCCATGGACCGGTTTTCCCGGTAATCCGTATTTGCA (site AGGTAGCCTTG) | 0 |
| AGCAAGGCATGGACCGGTTTTCCCGGTAATCCGTATTTGCT (site AGAAAGGCTAG) | 0 |
| CTGCTACCATGGACCGGTTTTCCCGGTAATCCGTATTTGCT (site CTGCTAACTAG) | 0.00893 |
| ACTTGATCATGGACCGGTTTTCCCGGTAATCCGTATTTGGC (site ACTTGATCTGC) | 1.24 |
| TTGTACGCATGGACCGGTTTTCCCGGTAATCCGTATTTGCA (site TTGTACGCTTG) | 1.8 |
| CTCGCTACATGGACCGGTTTTCCCGGTAATCCGTATTTGAG (site CTCGCTACTCT) | 1.03 |
| GTGACACCATGGACCGGTTTTCCCGGTAATCCGTATTTGTT (site GTGACACCTAA) | 0.00775 |
| TGGTTCCCATGGACCGGTTTTCCCGGTAATCCGTATTTGTG (site AGGTTCCCTCA) | 0.0205 |
| GGAGCACCATGGACCGGTTTTCCCGGTAATCCGTATTTGCA (site GGAGCACCTTG) | 0 |
| TTCGACCCATGGACCGGTTTTCCCGGTAATCCGTATTTGAG (site TTCGACCCTCT) | 0.00989 |
| ACACTAACATGGACCGGTTTTCCCGGTAATCCGTATTTGTC (site ACACCAACTGA) | 0.94 |
| TATGTAACATGGACCGGTTTTCCCGGTAATCCGTATTTGAC (site GTACCGTCTAA) | 0.0137 |
| GTTTATCCATGGACCGGTTTTCCCGGTAATCCGTATTTGCT (site GGTTATCCTAG) | 0 |
| CTCCCAACATGGACCGGTTTTCCCGGTAATCCGTATTTGAG (site CTCCCAACTCT) | 0.687 |
| GTAATCACATGGACCGGTTTTCCCGGTAATCCGTATTTGCG (site GTAATCACTCG) | 2.48 |
| CTAGTTTCATGGACCGGTTTTCCCGGTAATCCGTATTTGAC (site CTAGTATCTGT) | 2.19 |
| AACCATCCATGGACCGGTTTTCCCGGTAATCCGTATTTGAT (site AACCCTCCTAT) | 0.0146 |
| GCTTCTGCATGGACCGGTTTTCCCGGTAATCCGTATTTGCC (site GCTGCTGCTGG) | 0 |
| CGGCTGACATGGACCGGTTTTCCCGGTAATCCGTATTTGCC (site CGGCTGACTGG) | 1.22 |
| GGAATGGCATGGACCGGTTTTCCCGGTAATCCGTATTTGGT (site GGAATGGCTAC) | 1.5 |
| TTTTCCCCATGGACCGGTTTTCCCGGTAATCCGTATTTGTA (site TATTCCCCTTA) | 0.00331 |
| ACCCAAGCATGGACCGGTTTTCCCGGTAATCCGTATTTGAG (site ATCCAAGCTCT) | 0.467 |
| ATCACAGCATGGACCGGTTTTCCCGGTAATCCGTATTTGGG (site ATCACAGCTCC) | 0.00407 |

| Sequence | recombinant UMI read abundance (log10) |
| --- | --- |
| GCCTCGCCATGGACCGGTTTTCCCGGTAATCCGTATTTGTA (site GCCCCGCCTTA) | 0.633 |
| TAGCCTTCATGGACCGGTTTTCCCGGTAATCCGTATTTGGT (site TAGACTTCTAC) | 0 |
| AATTTGGCATGGACCGGTTTTCCCGGTAATCCGTATTTGTG (site AATTTGGCTCA) | 0.122 |
| GGAGAGACATGGACCGGTTTTCCCGGTAATCCGTATTTGCC (site GGATAGACTGG) | 0 |
| CATAATCCATGGACCGGTTTTCCCGGTAATCCGTATTTGTT (site CGGAATCCTAA) | 0.00373 |
| CCGGGTGCATGGACCGGTTTTCCCGGTAATCCGTATTTGAT (site CCTGGTGCTAT) | 0.428 |
| GTTCGATCATGGACCGGTTTTCCCGGTAATCCGTATTTGCA (site GTTCGACCTTG) | 0 |
| TGGCCGGCATGGACCGGTTTTCCCGGTAATCCGTATTTGGC (site TGGCCGCCTGC) | 0 |
| GCTACCCCATGGACCGGTTTTCCCGGTAATCCGTATTTGTG (site GCTACCCCTCA) | 0.013 |
| GAATTGACATGGACCGGTTTTCCCGGTAATCCGTATTTGAT (site GAATTGACTAT) | 1.37 |
| CACTACACATGGACCGGTTTTCCCGGTAATCCGTATTTGCT (site CCCTACACTAG) | 1.16 |
| TAGCTAGCATGGACCGGTTTTCCCGGTAATCCGTATTTGAT (site TAGCTAGCTTT) | 0.0212 |
| TAGGAATCATGGACCGGTTTTCCCGGTAATCCGTATTTGCG (site CAGGAATCTCG) | 2.3 |
| CCCTAGACATGGACCGGTTTTCCCGGTAATCCGTATTTGCC (site CCCTAGACTGG) | 1.04 |
| CCTATTACATGGACCGGTTTTCCCGGTAATCCGTATTTGGC (site CCTATTACTGC) | 0 |
| TAATGAGCATGGACCGGTTTTCCCGGTAATCCGTATTTGGA (site TAATGAGCTCC) | 0.0122 |
| CCTGTTTCATGGACCGGTTTTCCCGGTAATCCGTATTTGAC (site CCTGTTTCTGT) | 0 |
| TAACTAGCATGGACCGGTTTTCCCGGTAATCCGTATTTGAA (site TAACTAGCTTT) | 1.57 |
| CTCCCTCCATGGACCGGTTTTCCCGGTAATCCGTATTTGAG (site CTCCCTGCTCT) | 0.009 |
| CTACTGTCATGGACCGGTTTTCCCGGTAATCCGTATTTGTA (site CTACTGTCTTA) | 3.13 |
| CTTCGAGCATGGACCGGTTTTCCCGGTAATCCGTATTTGCA (site CTTCGAGCTTG) | 1.03 |
| AGAAAGGCATGGACCGGTTTTCCCGGTAATCCGTATTTGCT (site AGAAAGGCTTG) | 0 |
| TAACACGCATGGACCGGTTTTCCCGGTAATCCGTATTTGAG (site TAACACGCTCT) | 1.48 |
| AGCCTACCATGGACCGGTTTTCCCGGTAATCCGTATTTGTT (site AGCCTATCTAA) | 0.00614 |
| AGCTAGGCATGGACCGGTTTTCCCGGTAATCCGTATTTGGT (site TGCTAGGCTAC) | 0.0219 |

| Sequence | recombinant UMI read abundance (log10) |
| --- | --- |
| TAGCCTTCATGGACCGGTTTTCCCGGTAATCCGTATTTGGT (site TAGGCTTCTAC) | 0.0025 |
| CACGGCTCATGGACCGGTTTTCCCGGTAATCCGTATTTGCC (site CACGGCTCTGG) | 3.3 |
| ACTAGAACATGGACCGGTTTTCCCGGTAATCCGTATTTGCG (site ACTAGAACTCG) | 2.19 |
| AATAAAGCATGGACCGGTTTTCCCGGTAATCCGTATTTGGC (site AATAAAGCTGC) | 1.32 |
| CTACGCACATGGACCGGTTTTCCCGGTAATCCGTATTTGAG (site CTACGCACTCT) | 1.29 |
| ACTAGAACATGGACCGGTTTTCCCGGTAATCCGTATTTGAG (site ACTATAACTCT) | 1.22 |
| TCCAATTCATGGACCGGTTTTCCCGGTAATCCGTATTTGCC (site TCCAATTCTAG) | 0 |
| GTTGGAGCATGGACCGGTTTTCCCGGTAATCCGTATTTGCA (site GTTAGAGCTTG) | 2.17 |
| CTGGCAACATGGACCGGTTTTCCCGGTAATCCGTATTTGCA (site CTGGTAACTTG) | 0 |
| GGCGATTCATGGACCGGTTTTCCCGGTAATCCGTATTTGGC (site GGCGATTCTGC) | 1.57 |
| TCAGAGACATGGACCGGTTTTCCCGGTAATCCGTATTTGCC (site TCAGAGACTCG) | 0.683 |
| TAGGAATCATGGACCGGTTTTCCCGGTAATCCGTATTTGCG (site TAGGAACCTCG) | 0 |
| GGTGTGACATGGACCGGTTTTCCCGGTAATCCGTATTTGTG (site GGTGTGACTCA) | 0.68 |
| CGGGAACCATGGACCGGTTTTCCCGGTAATCCGTATTTGTT (site CGGGAACCTAA) | 0.47 |
| GCCTACCCATGGACCGGTTTTCCCGGTAATCCGTATTTGGC (site GCCTACCCTGC) | 0 |
| AATCGAACATGGACCGGTTTTCCCGGTAATCCGTATTTGTC (site AATCGAACTGA) | 0.559 |
| GGAGTGCCATGGACCGGTTTTCCCGGTAATCCGTATTTGGA (site GGAGTGCCTTC) | 0.0188 |
| GGGGCACCATGGACCGGTTTTCCCGGTAATCCGTATTTGCA (site GGGGCACCTGG) | 0 |
| TGTACACCATGGACCGGTTTTCCCGGTAATCCGTATTTGAC (site TGTACACCTTT) | 0.0141 |
| GTTGCTCCATGGACCGGTTTTCCCGGTAATCCGTATTTGGT (site GTTGGTCCTAC) | 0.0466 |
| AGTGAGACATGGACCGGTTTTCCCGGTAATCCGTATTTGGT (site ACTGAGACTAC) | 0.312 |
| CATGTGTCATGGACCGGTTTTCCCGGTAATCCGTATTTGAC (site AATGTGTCTGT) | 0 |
| TCAGGTTCATGGACCGGTTTTCCCGGTAATCCGTATTTGCT (site TCAGGTTCTAG) | 1.27 |
| GATTATCCATGGACCGGTTTTCCCGGTAATCCGTATTTGCG (site GATTATCCTAG) | 0 |
| CGGGAGTCATGGACCGGTTTTCCCGGTAATCCGTATTTGGC (site CGGGAGTCTGA) | 1.59 |
